Our source for the speed of sound and mass density values is the NIST ThermoML archive (doi:10.1016/j.jct.2013.01.032).

Numbers after ± are expanded uncertainties.

For this data set the following is noted: 101.33 kPa, Liquid; for speed of sound: Sing-around technique in a fixed-path interferometer; for mass density: Vibrating tube method.

Consider `CCCCn1cc[n+](C)c1.O=S(=O)([O-])C(F)(F)F` [1-butyl-3-methylimidazolium trifluoromethanesulfonate], for which the speed of sound is, setting by setting: (293.15 K) 1402.9 ± 1.3 m/s; (308.15 K) 1369.1 ± 1.3 m/s; (323.15 K) 1336.5 ± 1.3 m/s. Besides, the mass density reads like this: (293.15 K) 1303.7 ± 0.6 kg/m3; (308.15 K) 1291.7 ± 0.6 kg/m3; (323.15 K) 1279.9 ± 0.6 kg/m3.

With `CCCCO` [butan-1-ol], the speed of sound (293.15 K) is on record as 1256.2 ± 0.8 m/s, the speed of sound (308.15 K) came to 1205.9 ± 0.8 m/s and the speed of sound (323.15 K) is recorded as 1155.7 ± 0.8 m/s. The mass density came to 809.54 ± 0.14 kg/m3 (293.15 K), 798.01 ± 0.15 kg/m3 (308.15 K) and 786.15 ± 0.15 kg/m3 (323.15 K).

As for `CCC(C)O` (stereo not given) [butan-2-ol], the speed of sound (293.15 K) is 1230 ± 1 m/s, the speed of sound (308.15 K) is given as 1175.8 ± 0.9 m/s and the speed of sound (323.15 K) is given as 1120.3 ± 0.9 m/s. For the same molecule, the mass density worked out at 806.56 ± 0.18 kg/m3 (293.15 K), 794 ± 0.19 kg/m3 (308.15 K) and 780.5 ± 0.19 kg/m3 (323.15 K).

As to `CCCCCO` [pentan-1-ol], the speed of sound runs as follows: (293.15 K) 1292.7 ± 1.3 m/s; (308.15 K) 1242.4 ± 1.3 m/s; (323.15 K) 1192.7 ± 1.3 m/s. Further, the mass density is on record as 814.53 ± 0.31 kg/m3 (293.15 K), 803.52 ± 0.31 kg/m3 (308.15 K) and 792.15 ± 0.31 kg/m3 (323.15 K).

On to `CCCO` [propan-1-ol], for which the speed of sound (293.15 K) came to 1223.9 ± 0.8 m/s, the speed of sound (308.15 K) amounted to 1172.6 ± 0.8 m/s and the speed of sound (323.15 K) is listed as 1122 ± 0.8 m/s. The mass density is recorded as 803.92 ± 0.14 kg/m3 (293.15 K), 791.84 ± 0.15 kg/m3 (308.15 K) and 779.33 ± 0.16 kg/m3 (323.15 K).

For `CC(C)O` [propan-2-ol], the speed of sound reads like this: (293.15 K) 1156.7 ± 0.8 m/s; (323.15 K) 1050.8 ± 0.7 m/s. The mass density was determined as 785.1 ± 0.15 kg/m3 (293.15 K), 772.31 ± 0.16 kg/m3 (308.15 K) and 758.7 ± 0.17 kg/m3 (323.15 K).
